pIC50: −log10 of the molar value.
Assays:
Assay type in all cases: cell-based, human
HuH-7 cells = experiment: Growth inhibitory effect on cancer cells (WST assay), Example 2.3; conditions: for pIC50: HuH-7 cells, WST assay, concentrations 0-50 μM, control 0.1% DMSO; for IC50 compared with IC-2: comparison with IC-2
Description: HuH-7 cells, a human liver cancer cell line, were cultured on 10-cm cell culture dishes (TPP Techno Plastic Products AG, Trasadingen, Switzerland) by using DMEM under conditions at 5% CO2, 37° C., and 100% humidity. When the cells were 70 to 90% confluent, 200 μL of 0.25% Trypsin/1 mM EDTA solution, which had been prepared by diluting the stock solution 10-fold with PBS (−), was added to detach the cells. Then, the cells were centrifuged at 1000 rpm for 3 min at room temperature. The cells recovered were subcultured at a 1:4 split ratio.
First, 70 to 90% confluent HuH-7 cells were harvested and seeded (n=3) at 5×10^3 cells/well of a 96-well plate (TPP). After 24 h, each compound was added to the cells and the mixture was cultured at 37° C. The concentrations of each compound were 0, 10, 20, 30, 40, and 50 μM. For IC-2-506-1, however, the concentrations used were 0, 10, 20, 25, 30, 40, and 50 μM. Each control sample (0 μM) used was 0.1% DMSO, a solvent for each compound.
Next, 0, 24, 48, and 96 h after the compound treatment, 100 μIL of DMEM-diluted 10% Cell Counting Kit-8 (DOJINDO LABORATORIES, Kumamoto) was added. The mixture was incubated at 37° C. for 60 min and its absorbance (at a measurement wavelength of 450 nm/control wavelength of 600 nm) was measured by using a Sunrise Rainbow RC (Tecan Group Ltd., Mannedorf, Switzerland). Absorbance for the cells alone was calculated by subtracting, from the reading obtained, absorbance for 10% Cell Counting Kit-8 alone.
The “*” in figures indicates a significant difference of p<0.05 between 0.1% DMSO and each compound; and the “**” indicates a significant difference of p<0.01 (the same applies to all the figures in Examples).

mesenchymal stem cell = experiment: Hepatocyte differentiation-inducing effect, summary statements on Example 4 (readout not specified)
Description: Albumin, a hepatocyte marker, was used as an indicator, and RNA was collected from cells treated with each compound. Next, a hepatocyte differentiation-inducing effect was examined by real-time RT-PCR. The concentrations of the respective compounds were as described in FIG. 35. Each control sample used was 0.1% DMSO, a solvent for each compound.
By using urea synthesis, a hepatocyte function, as an indicator, a hepatocyte differentiation-inducing effect of each compound was investigated.
The cells treated with each compound were subjected to immunofluorescence analysis of albumin, a hepatocyte marker, to investigate a hepatocyte differentiation-inducing effect. The concentrations of the respective compounds were as described in FIG. 37. Each control sample used was 0.1% DMSO, a solvent for each compound.
By using glycogen synthesis, a hepatocyte function, as an indicator, a hepatocyte differentiation-inducing effect of each compound was investigated.

Wnt/β-catenin signaling [1] = experiment: Inhibitory effect on Wnt/β-catenin signaling in liver stellate cells (LX-2, TCF4 luciferase); conditions: concentration equal to or lower than that of IC-2
Description: While each compound was added at concentrations where the cell growth of fibrosis-causing liver stellate LX-2 cells was reduced to about 50 to 80%, Wnt/β-catenin signaling activity was measured. […] The concentrations of the respective compounds were as described in FIG. 41. Each control sample used was 0.1% DMSO, a solvent for each compound.
LX-2 cells, which were cultured and maintained by using 10% FBS/DMEM, were harvested and seeded (n=3) in 1% FBS/DMEM at 4.0×10^4 cells per well of a 24-well plate. Next, 25 μL of Opti-MEM (Gibco, Life Technologies Corp., Carlsbad, Calif.) containing 50 ng of pTCF4-CMVpro-GL4.20, having 3 copies of TCF motifs (CCT TTG ATC) upstream of a CMV promoter in a multiple cloning site of pGL4.20 (Promega), and 5 ng of pRL-CMV Vector (Promega) and 25 μL of Opti-MEM containing 0.4 μL of Lipofectamine 2000 (Invitrogen, Life Technologies Corp., Carlsbad, Calif.) were mixed and incubated at room temperature for 20 min. At 20 h after the cell seeding, the mixture was added to each well, so that both reporter plasmids were transiently transfected into the cells. After additional 4 h, 2.5 ng/mL of TGF-β and each compound were added to the cells and the mixture was cultured at 37° C.
At 24 and 48 h after the compound treatment, the culture medium was discarded, and 100 μL of room temperature 5×Passive Lysis Buffer (PLB), which had been diluted 5-fold with MilliQ water, was added to each well. Next, the plate was shaken at room temperature for 15 min and was then frozen at −30° C. overnight. A Luciferase Assay Substrate was diluted with 10 mL of room temperature Luciferase Assay Buffer II to prepare Luciferase Assay Reagent II (LARII). Then, 1 μL of Stop&Glo Substrate was diluted with 49 μL of room temperature Stop&Glo Buffer to prepare Stop&Glo (Promega) in a quantity enough for samples.
The frozen PLB lysate samples were thawed and permeabilized for 15 min. After that, 50 μl aliquots of LARII were dispensed into 3.5 mL test tubes (Sarstedt, AG & Co., Numbrecht, Germany) and 10 μL of each frozen PLB lysate sample was added and mixed well. Subsequently, luminescence was quantified by using a MiniLumat LB 9506 (Berthold Technologies GmbH & Co, Bad Wildbad, Germany) to measure firefly luciferase activity. After the measurement, 50 μL of Stop&Glo was added and mixed well and luminescence was then quantified by using the MiniLumat LB 9506 to determine Renilla luciferase activity. The measurement results were obtained by dividing the firefly luciferase activity by the Renilla luciferase activity.

LX-2 cells = experiment: Anti-fibrosis effect, summary statements on Example 3 (marker not specified)
Description: α-Smooth muscle actin (α-SMA), a fibrosis marker, was used as an indicator, and RNA was collected from LX-2 cells treated with each low-molecular-weight compound. Next, an inhibitory effect on fibrosis was examined by real-time RT-PCR.
In addition, instead of α-SMA, another fibrosis marker collagen, type I, alpha 1 (COL1A1) was used as an indicator, and substantially the same protocol was repeated. The concentrations of each compound used were as described in FIG. 34. Each control sample used was 0.1% DMSO, a solvent for each compound. Here, COL1A1 primers used were 5′-CCT CCA GGG CTC CAA CGA G-3′ and 5′-TCAATCACTGTCTTGCCCCA-3′. The annealing was performed at 58° C. for 5 sec. The measurement results were obtained by dividing the calculated value for the COL1A1 gene by the calculated value for the GAPDH gene.

Wnt/β-catenin signaling [2] = experiment: Inhibitory effect on Wnt/β-catenin signaling in liver cancer cells (HuH7-TCF4 luciferase); conditions: concentration equal to or lower than that of IC-2
Description: A pTCF4-CMVpro-GL4.20 plasmid vector, which had been constructed by inserting 3 copies of TCF4 motifs (CCT TTG ATC) upstream of a CMV promoter into a multiple cloning site of pGL4.20 (Promega Corp., Fitchburg, Wis.), was linearized and stably transfected into the HuH-7 cells. The resulting stable cells (HuH7-TCF4 cells) and HuH-7 cells were likewise cultured.
While each compound was added at concentrations where the growth of HuH-7 cells was reduced to about 50% or less, Wnt/β-catenin signaling activity was measured. The concentrations of the respective compounds were as described in FIG. 40. Control samples used were 0.1% DMSO, a solvent for each compound, and 0.5 μM 5-FU.
First, 70 to 90% confluent HuH7-TCF4 cells were harvested and seeded (n=3) at 5.0×10^4 cells/well of a 24-well plate (TPP). After 24 h, each compound was added to the cells and the mixture was cultured at 37° C.
At 48 h after the compound treatment, the culture medium was discarded, and 100 μL of room temperature 5×Passive Lysis Buffer (PLB) (Promega Corp., Fitchburg, Wis.), which had been diluted 5-fold with MilliQ water, was added to each well. Next, the plate was shaken at room temperature for 15 min and was then frozen at −30° C. overnight. A Luciferase Assay Substrate was diluted with 10 mL of room temperature Luciferase Assay Buffer II to prepare Luciferase Assay Reagent II (LARII) (Promega). The frozen PLB lysate samples were thawed and permeabilized for 15 min. Then, 10 μL aliquots were added to wells of a 96-well white plate (Corning Inc., Corning, N.Y.). While 50 μL aliquots of LARII were each added to each well, luminescence was quantified by using a 1420 multi-label counter ARVO MX (PerkinElmer Singapore Pte Ltd., Singapore) to determine firefly luciferase activity. Note that a significant difference was evaluated by using (two-tailed) Student's t-test. The “*” in figures indicates a significant difference of p<0.05 between 0.1% DMSO and each compound; and the “**” indicates a significant difference of p<0.01 (the same applies to all the figures in Examples).

Row | pIC50 (HuH-7 cells) | IC50 compared with IC-2 (HuH-7 cells) | hepatocyte-inducing effect compared with IC-2 (mesenchymal stem cell; concentration higher than that of IC-2) | hepatocyte-inducing effect at low concentration (mesenchymal stem cell; low concentration) | Structure (SMILES) | inhibitory effect on Wnt/β-catenin signaling pathway in liver stellate cells compared with IC-2 (Wnt/β-catenin signaling [1]) | anti-fibrosis effect compared with IC-2, equal or higher concentration (LX-2 cells; concentration equal to or higher than that of IC-2) | anti-tumor effect compared with IC-2 (HuH-7 cells; at a concentration lower than that of IC-2) | inhibitory effect on Wnt/β-catenin signaling pathway in liver cancer cells compared with IC-2 (Wnt/β-catenin signaling [2]) | anti-fibrosis effect compared with IC-2, lower concentration (LX-2 cells; concentration even lower than that of IC-2)
1 | 4.59 | lower IC50 than IC-2 | more potent hepatocyte-inducing effect | – | O=C1C(Cc2ccccc2)N2C(=O)CCN(C(=O)NCc3ccccc3)C2CN1Cc1ccc(Cl)cc1Cl (stereo not drawn) [IC-2-506-2] | more potent inhibitory effect | more potent anti-fibrosis effect | – | – | –
2 | 4.84 | lower IC50 than IC-2 | – | exerted a hepatocyte-inducing effect | O=C1C(Cc2ccccc2)N2C(=O)CCN(C(=O)NCc3ccc(Cl)cc3)C2CN1Cc1cccc2ccccc12 (stereo not drawn) [IC-2-Cl] | more potent inhibitory effect | – | more potent anti-tumor effect | more potent inhibitory effect | more potent anti-fibrosis effect

— patent US10597398B2, “Suppression and regeneration promoting effect of low molecular weight compound on cancer and fibrosis” (NATIONAL UNIVERSITY CORPORATION TOTTORI UNIVERSITY, priority 2015, dated 2020)
